Patent US20060128724A1, “Pyrazole-substituted aminoheteroaryl compounds as protein kinase inhibitors” (AGOURON PHARMACEUTICALS, INC., priority 2004, published 2006)
pKi: −log10 of the molar value. Where two headings read alike, the source gives them in different places.

Target: T1, c-MET (HGFR) (Homo sapiens, UniProt P08581)
T1 construct: purchased Upstate 14-526
Assay: HGFR Continuous-Coupled Spectrophotometric Assay
Format: biochemical
Conditions: Met-2 substrate peptide, 50 nM HGFR, 37° C.
Method in brief: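 Tyrosine kinase activity of 50 nM HGFR on the activation-loop Met-2 peptide, followed as NADH consumption at 340 nm over 10 min at 37 °C in a pyruvate kinase/LDH coupled system, HEPES pH 7.5 buffer with MgCl2 and DTT.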

T1 sequence (P08581 974-1390 limits assumed): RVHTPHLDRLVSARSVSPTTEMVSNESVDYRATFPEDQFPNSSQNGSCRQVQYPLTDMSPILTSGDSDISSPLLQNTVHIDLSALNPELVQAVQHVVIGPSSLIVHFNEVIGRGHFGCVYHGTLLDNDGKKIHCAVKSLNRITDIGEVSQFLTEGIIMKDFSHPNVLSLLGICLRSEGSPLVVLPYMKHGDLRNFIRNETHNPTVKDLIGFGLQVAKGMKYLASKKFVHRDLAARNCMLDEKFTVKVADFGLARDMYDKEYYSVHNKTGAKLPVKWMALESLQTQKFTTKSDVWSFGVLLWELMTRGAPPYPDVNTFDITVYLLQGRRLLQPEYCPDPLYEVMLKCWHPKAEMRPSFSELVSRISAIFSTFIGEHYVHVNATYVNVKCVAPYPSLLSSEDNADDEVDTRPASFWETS

| SMILES | pKi (read-out: Met Ki) | pKi (read-out: c-Met Ki) |
| --- | --- | --- |
| C[C@@H](Oc1nc(Br)cnc1N)c1c(Cl)ccc(F)c1Cl [5-bromo-3-[(R)-1-(2,6-dichloro-3-fluoro-phenyl)-ethoxy]-pyrazin-2-ylamine] | – | 6.10 |
| CC(Oc1cc(-c2cnn(C3CCNCC3)c2)cnc1N)c1c(Cl)c(F)cc(N2CCCC2=O)c1Cl (stereo not drawn) [Example 157, 1-(3-{1-[2-Amino-5-(1-piperidin-4-yl-1H-pyrazol-4-yl)-pyridin-3-yloxy]-ethyl]-2,4-dichloro-5-fluoro-phenyl)-pyrrolidin-2-one] | 7.29 | – |
| CC(Oc1cc(-c2cnn(C3CC4CCC(C3)N4)c2)cnc1N)c1c(Cl)ccc(F)c1Cl (stereo not drawn) [Example 99, 5-[1-(8-azabicyclo[3.2.1]oct-3-yl)-1H-pyrazol-4-yl]-3-[1-(2,6-dichloro-3-fluorophenyl)ethoxy]pyridin-2-amine] | – | 8.30 |
| CCN(CC)CCNC(=O)C(C)(C)n1cc(-c2cnc(N)c(OC(C)c3c(Cl)ccc(F)c3Cl)c2)cn1 (stereo not drawn) [Example 24, 2-(4-{6-Amino-5-[1-(2,6-dichloro-3-fluoro-phenyl)-ethoxy]-pyridin-3-yl}pyrazol-1-yl)-N-(2-diethylamino-ethyl)-isobutyramide] | – | 6.66 |
| CC(Oc1cc(-c2cnn(CC3CCN(C)CC3)c2)cnc1N)c1c(Cl)ccc(F)c1Cl (stereo not drawn) [Example 89, 3-[1-(2,6-Dichloro-3-fluoro-phenyl)-ethoxy]-5-[1-(1-methyl-piperidin-4-ylmethyl)-1H-pyrazol-4-yl]-pyridin-2-ylamine] | – | 7.62 |
| CC(Oc1cc(-c2cnn(C3CCC3)c2)cnc1N)c1c(Cl)ccc(F)c1Cl (stereo not drawn) [Example 49, 5-(1-Cyclobutyl-1H-pyrazol-4-yl)-3-[1-(2,6-dichloro-3-fluoro-phenyl)-ethoxy]-pyridin-2-ylamine] | – | 7.70 |
| Cc1noc(C)c1Cn1cc(-c2cnc(N)c(OC(C)c3c(Cl)ccc(F)c3Cl)c2)cn1 (stereo not drawn) [Example 93, 3-[1-(2,6-dichloro-3-fluorophenyl)ethoxy]-5-{1-[(3,5-dimethylisoxazol-4-yl)methyl]-1H-pyrazol-4-yl}pyridin-2-amine] | – | 7.16 |
| CC(Oc1cc(-c2cnn(C3CN(C(=O)CN(C)C)C3)c2)cnc1N)c1c(Cl)ccc(F)c1Cl (stereo not drawn) [Example 7, 3-[1-(2,6-dichloro-3-fluorophenyl)ethoxy]-5-(1-{1-[(dimethylamino)acetyl]azetidin-3-yl}-1H-pyrazol-4-yl)pyridin-2-amine] | – | 7.66 |
| CC(Oc1cc(-c2cnn(C(C)(C)C(=O)N3CC[C@@H](O)C3)c2)cnc1N)c1c(Cl)ccc(F)c1Cl (stereo partly drawn) [Example 18, 2-(4-{6-Amino-5-[1-(2,6-dichloro-3-fluoro-phenyl)-ethoxy]-pyridin-3-yl}-pyrazol-1-yl)-1-((R)-3-hydroxy-pyrrolidin-1-yl)-2-methyl-propan-1-one] | – | 6.57 |
| CC(Oc1cc(-c2cnn(C(C)(C)CO)c2)cnc1N)c1c(Cl)ccc(F)c1Cl (stereo not drawn) [Example 59, 2-(4-{6-Amino-5-[1-(2,6-dichloro-3-fluoro-phenyl)-ethoxy]-pyridin-3-yl}-pyrazol-1-yl)-2-methyl-propan-1-ol] | – | 7.85 |
| CC(Oc1cc(-c2cnn(CC3CN(C(=O)OC(C)(C)C)C3)c2)cnc1N)c1c(Cl)ccc(F)c1Cl (stereo not drawn) [Example 1, tert-butyl 3-[(4-{6-amino-5-[1-(2,6-dichloro-3-fluorophenyl)ethoxy]pyridin-3-yl}-1H-pyrazol-1-yl)methyl]azetidine-1-carboxylate] | – | 7.18 |
| CCN(CC)CC(=O)N1CCC(n2cc(-c3cnc(N)c(OC(C)c4c(Cl)ccc(F)c4Cl)c3)cn2)CC1 (stereo not drawn) [Example 126, 1-[4-(4-{6-Ainino-5-[1-(2,6-dichloro-3-fluoro-phenyl)-ethoxy]-pyridin-3-yl}-pyrazol-1-yl)-piperidin-1-yl]-2-diethylamino-ethanone] | 7.82 | – |
| CC(Oc1cc(-c2cnn(C)c2)cnc1N)c1c(Cl)c(F)cc(F)c1Cl (stereo not drawn) [Example 149, 3-[1-(2,6-Dichloro-3,5-difluoro-phenyl)-ethoxy]-5-(1-methyl-1H-pyrazol-4-yl)-pyridin-2-ylamine] | 7.14 | – |

Next, values leading:

| pKi (read-out: Met Ki) | pKi (read-out: c-Met Ki) | SMILES |
| --- | --- | --- |
| 7.89 | – | CC(Oc1cc(-c2cnn(C3CCN(C(=O)CN4CCOCC4)CC3)c2)cnc1N)c1c(Cl)ccc(F)c1Cl (stereo not drawn) [Example 123, 1-[4-(4-{6-Amino-5-[1-(2,6-dichloro-3-fluoro-phenyl)-ethoxy]-pyridin-3-yl}-pyrazol-1-yl)-piperidin-1-yl]-2-morpholin-4-yl-ethanone] |
| 8.00 | – | COc1ccc(Cl)c(C(C)Oc2cc(-c3cnn(C4CCNCC4)c3)cnc2N)c1Cl (stereo not drawn) [Example 138, 3-(1-(2,6-Dichloro-3-methoxy-phenyl)-ethoxy]-5-(1-piperidin-4-yl-1H-pyrazol-4-yl)-pyridin-2-ylamine] |
| – | 7.15 | Cc1nn(C(C)(C)C(=O)NCCN2CCCC2)cc1-c1cnc(N)c(OC(C)c2c(Cl)ccc(F)c2Cl)c1 (stereo not drawn) [Example 37, 2-(4-{6-Amino-5-[1-(2,6-dichloro-3-fluoro-phenyl)-ethoxy]-pyridin-3-yl}3-methyl-pyrazol-1-yl)-N-(2-pyrrolidin-1-yl-ethyl)-isobutyramide] |
| – | 8.15 | CC(Oc1cc(-c2cnn(C3CCN(CC(N)=O)CC3)c2)cnc1N)c1c(Cl)ccc(F)c1Cl (stereo not drawn) [Example 98, 2-[4-(4-{6-amino-5-[1-(2,6-dichloro-3-fluorophenyl)ethoxy]pyridin-3-yl}-1H-pyrazol-1-yl)piperidin-1-yl]acetamide] |
| – | 7.00 | CC(C)Cn1cc(-c2cnc(N)c(OC(C)c3c(Cl)ccc(F)c3Cl)c2)cn1 (stereo not drawn) [Example 22, 3-[1-(2,6-Dichloro-3-fluoro-phenyl)-ethoxy]-5-(1-isobutyl-1H-pyrazol-4-yl)-pyridin-2-ylamine] |
| 7.49 | – | CC(Oc1cc(-c2cnn(C)c2)cnc1N)c1c(Cl)c(F)cc(O[C@@H]2CCNC2)c1Cl (stereo partly drawn) [Example 152, 3-{1-[2,6-Dichloro-3-fluoro-5-(pyrrolidin-3R-yloxy)-phenyl]-ethoxy}-5-(1-methyl-1H-pyrazol-4-yl)-pyridin-2-ylamine] |
| 6.79 | – | CC(Oc1cc(-c2cnn(C3CCNCC3)c2)cnc1N)c1c(Cl)c(F)cc(N(C)C)c1Cl (stereo not drawn) [Example 150, 3-[1-(2,6-Dichloro-3-dimethylamino-5-fluoro-phenyl)-ethoxy]-5-(1-piperidin-4-yl-1H-pyrazol-4-yl)-pyridin-2-ylamine] |
| – | 7.42 | CC(Oc1cc(-c2ccn(C3CCNCC3)n2)cnc1N)c1c(Cl)ccc(F)c1Cl (stereo not drawn) [Example 75, 3-[1-(2,6-Dichloro-3-fluoro-phenyl)-ethoxy]-5-(1-piperidin-4-yl-1H-pyrazol-3-yl)-pyridin-2-ylamine] |
| – | 7.52 | CC(Oc1cc(-c2cnn(C3CN(C(C)C)C3)c2)cnc1N)c1c(Cl)ccc(F)c1Cl (stereo not drawn) [Example 97, 3-[1-(2,6-dichloro-3-fluorophenyl)ethoxy]-5-[1-(1-isopropylazetidin-3-yl)-1H-pyrazol-4-yl]pyridin-2-amine] |
| – | 7.24 | CC(Oc1cc(-c2cnn(CC3CN(C(C)C)C3)c2)cnc1N)c1c(Cl)ccc(F)c1Cl (stereo not drawn) [Example 108, 3-[1-(2,6-dichloro-3-fluorophenyl)ethoxy]-5-{1-[(1-isopropylazetidin-3-yl)methyl]-1H-pyrazol-4-yl}pyridin-2-amine] |
| – | 7.77 | CC(Oc1cc(-c2cnn(C3CCS(=O)(=O)CC3)c2)cnc1N)c1c(Cl)ccc(F)c1Cl (stereo not drawn) [Example 116, 3-[1-(2,6-dichloro-3-fluorophenyl)ethoxy]-5-[1-(1,1-dioxidotetrahydro-2H-thiopyran-4-yl)-1H-pyrazol-4-yl]pyridin-2-amine] |
| – | 8.00 | CC(Oc1cc(-c2cnn(C3CCN(C(=O)CN(C)C)CC3)c2)cnc1N)c1c(Cl)ccc(F)c1Cl (stereo not drawn) [Example 44, 1-[4-(4-{6-Amino-5-[1-(2,6-dichloro-3-fluoro-phenyl)-ethoxy]-pyridin-3-yl}-pyrazol-1-yl)-piperidin-1-yl]-2-dimethylamino-ethanone] |
| – | 7.55 | CC(Oc1cc(-c2cnn(C[C@H](O)CO)c2)cnc1N)c1c(Cl)ccc(F)c1Cl (stereo in doubt) [Example 87, 3-(4-{6-Amino-5-[1-(2,6-dichloro-3-fluoro-phenyl)-ethoxy]-pyridin-3-yl}-pyrazol-1-yl)-propane-1,2-diol] |
| – | 7.15 | COCCN1CC(n2cc(-c3cnc(N)c(OC(C)c4c(Cl)ccc(F)c4Cl)c3)cn2)C1 (stereo not drawn) [Example 103, 3-[1-(2,6-dichloro-3-fluorophenyl)ethoxy]-5-{1-[1-(2-methoxyethyl)azetidin-3-yl]-1H-pyrazol-4-yl}-pyridin-2-amine] |
| 7.38 | – | CC(Oc1cc(-c2cnn(CC3CCOCC3)c2)cnc1N)c1c(Cl)ccc(F)c1Cl (stereo not drawn) [Example 132, 3-[1-(2,6-Dichloro-3-fluoro-phenyl)-ethoxy]-5-[1-(tetraydro-pyran-4-ylmethyl)-1H-pyrazol-4-yl]-pyridin-2-amine] |
| – | 6.98 | CC(Oc1cc(-c2cnn(CC3(O)CCN(C(=O)OC(C)(C)C)CC3)c2)cnc1N)c1c(Cl)ccc(F)c1Cl (stereo not drawn) [Example 3, tert-butyl 4-[(4-{6-amino-5-[1-(2,6-dichloro-3-fluorophenyl)ethoxy]pyridin-3-yl}1H-pyrazol-1-yl)methyl]-4-hydroxypiperidine-1-carboxylate] |
| – | 7.34 | CC(Oc1cc(-c2cnn(CCO)c2)cnc1N)c1c(Cl)ccc(F)c1Cl (stereo not drawn) [Example 83, 2-(4-{6-Amino-5-[1-(2,6-dichloro-3-fluoro-phenyl)-ethoxy]-pyridin-3-yl}-pyrazol-1-yl)-ethanol] |
| 5.60 | – | Cc1ccc(Cl)c(C(C)Oc2cc(Br)cnc2N)c1Cl (stereo not drawn) [Example 142, 5-Bromo-3-[1-(2,6-dichloro-3-methyl-phenyl)ethoxy]-pyridin-2-ylamine] |
| – | 8.00 | CC(Oc1cc(-c2cnn(C3CCN(C(=O)CO)CC3)c2)cnc1N)c1c(Cl)ccc(F)c1Cl (stereo not drawn) [Example 40, 1-[4-(4-{6-Amino-5-[1-(2,6-dichloro-3-fluoro-phenyl)-ethoxy]-pyridin-3-yl}-pyrazol-1-yl)-piperidin-1-yl]-2-hydroxy-ethanone] |
| 6.98 | – | COc1cc(Cl)c(C(C)Oc2cc(-c3cnn(C4CCNCC4)c3)cnc2N)c(Cl)c1OC (stereo not drawn) [Example 154, 3-(1-(2,6-Dichloro-3-dimethoxy-phenyl)-ethoxy]-5-(1-piperidin-4-yl-1H-pyrazol-4-yl)-pyridin-2-ylamine] |
